Assay results from patent US6911470B1, “Polyoxometalate compounds as antiviral agents” (priority 1988, dated 2005).
Read-outs that look alike come from different tables or passages of the source.

What was measured:
HSV-2 = test: Plaque reduction assay for herpes simplex viruses in Vero cells; format: cell-based, herpes simplex virus type 2; conditions: Table 2, read-out: EC-50 HSV-2
Description: (§1) Cell culture assays for heroes simplex viruses. Mycoplasma-free Vero cells, obtained from Flow Laboratory (McLean, Va.), were used for the plaque assays. The methodologies for the plaque reduction and cytotoxicity assays have been previously described (Schinazi et al, Antimicrob. Agents Chemother. 22, 499-507, 1982). Median-effect method. Dose-effect relationships were analyzed by the median-effect equation (Chou et al, Adv. Enz. Regul. 22, 27-55, 1984). The slope (m) and median effective and inhibitory concentration (EC50 and IC50) values were obtained by using a computer program developed by Chou and Chou (Chou et al, Elsevier-Biosoft, Elsevier Science Publishers, Cambridge, U.K., 1985).

HSV-1 = test: as above; format: cell-based, herpes simplex virus type 1; conditions: Table 2, read-out: EC-50 HSV-1
Description: as §1

[1] = biological target: T1, HIV-1 reverse transcriptase (Human immunodeficiency virus type 1 group M subtype B, UniProt P04585); test: Evaluation of compounds on purified retroviral RT (cell-free, virion-derived); format: biochemical; conditions: Table 2; read-out: EC-50 Cell-Free RT (virion-derived)
T1 construct: HIV-1 RT was isolated from detergent disrupted virions; made in house; host or cells: virions pelleted from culture fluid of HIV-1-infected PHA-stimulated human PBMC; DEAE-cellulose and phosphocellulose chromatography
In short: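 Enzyme was HIV-1 RT partially purified from virions of infected PHA-stimulated PBMC by DEAE-cellulose and phosphocellulose chromatography. Reactions at pH 8.0 with 2 mM MgCl2, 50 mM KCl, 3 μg/ml (rA)·(dT)12-18 template and 1 μM [3H]TTP, 60 min at 37 °C. IC50 from median-effect analysis.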

Row | Molecule | EC50 (HSV-2; Human alphaherpesvirus 2, Vero) | EC50 (HSV-1; Human alphaherpesvirus 1, Vero) | EC50 [1] | EC50 (HSV-2) | EC50 (HSV-1)
1 | Cc1cn([C@H]2C[C@H](N=[N+]=[N-])[C@@H](CO)O2)c(=O)[nH]c1=O [Formula 22, 3′-azido-3′-deoxythymidine, reference compound] | > 100 µM | > 100 µM | – | – | –
2 | (ArgH^+)m(H^+)4-mST, where m=1-4 [(ARGH^+)nH^+(4−n)ST] | – | – | 14.2 µM | < 1 µM | 0.18 µM
3 | (Me4N)4W10O32 [Formula 19] | – | – | 10.1 µM | 8.78 µM | 5.98 µM
4 | (NH4)4W10O32 [Formula 18] | – | – | 24.2 µM | 9.7 µM | > 10 µM
5 | (NH4)6P2W18O62 [Formula 14] | – | – | 0.13 µM | 0.24 µM | 0.33 µM
6 | H3PW12O40 [Formula 2] | – | – | > 100 µM | 18.7 µM | 12.7 µM
7 | H4SiW12O40 [Formula 3] | – | – | 26.1 µM | 1.5 µM | 1.6 µM
8 | H5BW12O40 [Formula 4] | – | – | 2.6 µM | – | < 1 µM
9 | H6P2W18O62 [Formula 13] | – | – | 0.14 µM | 0.18 µM | 0.16 µM
